# Experimental data from patent US8581584B2, “Membrane proteins, mechanisms of action and uses thereof” (priority 2010, dated 2013).
# Target: transmembrane domain of M2 protein (Influenza A virus, UniProt P0DOF5)
# Test: solid state NMR spectra of uniformly aligned M2 samples with and without drug
# Conditions: five isoleucines 15N labeled; FIG. 31
# Text: Uniformly aligned samples of membrane proteins meant that each molecule in the sample will have the same orientation with respect to the magnetic field axis of the NMR spectrometer. In this way the orientation dependent spin interactions such as anisotropic chemical shifts, dipolar and quadrupolar interactions can be observed. The orientations of the individual atomic sites in the protein reflect the orientation of that particular site with respect to the magnetic field.
# Chain of transmembrane domain of M2 protein (P0DOF5 26-46): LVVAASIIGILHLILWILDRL
compound,measurement,value
NC12CC3CC(CC(C3)C1)C2 [amantadine],change of 15N-Ile resonances in response to drug binding,two of the resonances shift (arrows) dramatically in response to drug binding
